From the supplement of paper PMC10307832

Assays:
Assay in all cases: relative viability (nuclei count vs DMSO), 5 days (fraction); higher = more cells survive
PC-14 = tested on: PC-14
Summary of the method: (§1)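 Five library-drug doses in √10 steps were combined with a fixed anchor-drug dose, or a single drug was given alone, by pin tool to lung cancer cell lines in 1536-well plates the day after seeding. Nuclei were stained and counted after 5 days. Relative viability is the nuclei count in treated wells over that in vehicle wells, taken as the median of duplicate plates.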

SW 1573 = tested on: SW 1573
Summary of the method: as §1

RERF-LC-KJ = tested on: RERF-LC-KJ
Summary of the method: as §1

LK-2 = tested on: LK-2
Summary of the method: as §1

H3255 = tested on: H3255
Summary of the method: as §1

NCI-H2342 = tested on: NCI-H2342
Summary of the method: as §1

NCI-H2228 = tested on: NCI-H2228
Summary of the method: as §1

EKVX = tested on: EKVX
Summary of the method: as §1

NCI-H322M = tested on: NCI-H322M
Summary of the method: as §1

NCI-H661 = tested on: NCI-H661
Summary of the method: as §1

NCI-H520 = tested on: NCI-H520
Summary of the method: as §1

HCC-827 = tested on: HCC-827
Summary of the method: as §1

HCC-15 = tested on: HCC-15
Summary of the method: as §1

PC-3 [JPC-3] = tested on: PC-3 [JPC-3]
Summary of the method: as §1

COR-L23 = tested on: COR-L23
Summary of the method: as §1

NCI-H1734 = tested on: NCI-H1734
Summary of the method: as §1

NCI-H1437 = tested on: NCI-H1437
Summary of the method: as §1

NCI-H1650 = tested on: NCI-H1650
Summary of the method: as §1

NCI-H2405 = tested on: NCI-H2405
Summary of the method: as §1

NCI-H1355 = tested on: NCI-H1355
Summary of the method: as §1

CAL-12T = tested on: CAL-12T
Summary of the method: as §1

O=C(O)c1ccc(-c2c[nH]c3ncc(-c4ccccc4)cc23)cc1C1CCCC1 + CC(=O)Nc1cccc(-n2c(=O)n(C3CC3)c(=O)c3c(Nc4ccc(I)cc4F)n(C)c(=O)c(C)c32)c1 [Trametinib] (partner 0.02 µM)
relative viability (PC-14; first compound 0.04 µM): 0.714
relative viability (PC-14; first compound 0.1265 µM): 0.75
relative viability (PC-14; first compound 0.4 µM): 0.703
relative viability (PC-14; first compound 1.265 µM): 0.688
relative viability (SW 1573; first compound 0.04 µM): 0.476
relative viability (SW 1573; first compound 0.1265 µM): 0.584
relative viability (SW 1573; first compound 0.4 µM): 0.439
relative viability (SW 1573; first compound 1.265 µM): 0.365
relative viability (RERF-LC-KJ; first compound 0.04 µM): 0.916
relative viability (RERF-LC-KJ; first compound 0.1265 µM): 0.908
relative viability (RERF-LC-KJ; first compound 0.4 µM): 0.814
relative viability (RERF-LC-KJ; first compound 1.265 µM): 0.657
relative viability (LK-2; first compound 0.04 µM): 0.73
relative viability (LK-2; first compound 0.1265 µM): 0.816
relative viability (LK-2; first compound 0.4 µM): 0.599
relative viability (LK-2; first compound 1.265 µM): 0.781
relative viability (H3255; first compound 0.04 µM): 0.587
relative viability (H3255; first compound 0.1265 µM): 0.689
relative viability (H3255; first compound 0.4 µM): 0.584
relative viability (H3255; first compound 1.265 µM): 0.625
relative viability (NCI-H2342; first compound 0.04 µM): 0.768
relative viability (NCI-H2342; first compound 0.1265 µM): 0.839
relative viability (NCI-H2342; first compound 0.4 µM): 0.906
relative viability (NCI-H2342; first compound 1.265 µM): 0.711
relative viability (NCI-H2228; first compound 0.04 µM): 0.548
relative viability (NCI-H2228; first compound 0.1265 µM): 0.581
relative viability (NCI-H2228; first compound 0.4 µM): 0.633
relative viability (NCI-H2228; first compound 1.265 µM): 0.305
relative viability (EKVX; first compound 0.04 µM): 0.322
relative viability (EKVX; first compound 0.1265 µM): 0.408
relative viability (EKVX; first compound 0.4 µM): 0.33
relative viability (EKVX; first compound 1.265 µM): 0.316
relative viability (NCI-H322M; first compound 0.04 µM): 0.482
relative viability (NCI-H322M; first compound 0.1265 µM): 0.633
relative viability (NCI-H322M; first compound 0.4 µM): 0.524
relative viability (NCI-H322M; first compound 1.265 µM): 0.493
relative viability (NCI-H661; first compound 0.04 µM): 0.585
relative viability (NCI-H661; first compound 0.1265 µM): 0.628
relative viability (NCI-H661; first compound 0.4 µM): 0.585
relative viability (NCI-H661; first compound 1.265 µM): 0.59
relative viability (NCI-H520; first compound 0.04 µM): 0.673
relative viability (NCI-H520; first compound 0.1265 µM): 0.775
relative viability (NCI-H520; first compound 0.4 µM): 0.672
relative viability (NCI-H520; first compound 1.265 µM): 0.437
relative viability (HCC-827; first compound 0.04 µM): 0.574
relative viability (HCC-827; first compound 0.1265 µM): 0.575
relative viability (HCC-827; first compound 0.4 µM): 0.487
relative viability (HCC-827; first compound 1.265 µM): 0.362
relative viability (HCC-15; first compound 0.04 µM): 0.396
relative viability (HCC-15; first compound 0.1265 µM): 0.395
relative viability (HCC-15; first compound 0.4 µM): 0.409
relative viability (HCC-15; first compound 1.265 µM): 0.351
relative viability (PC-3 [JPC-3]; first compound 0.04 µM): 0.656
relative viability (PC-3 [JPC-3]; first compound 0.1265 µM): 0.756
relative viability (PC-3 [JPC-3]; first compound 0.4 µM): 0.752
relative viability (PC-3 [JPC-3]; first compound 1.265 µM): 0.647
relative viability (COR-L23; first compound 0.04 µM): 0.584
relative viability (COR-L23; first compound 0.1265 µM): 0.608
relative viability (COR-L23; first compound 0.4 µM): 0.627
relative viability (COR-L23; first compound 1.265 µM): 0.507
relative viability (NCI-H1734; first compound 0.04 µM): 0.618
relative viability (NCI-H1734; first compound 0.1265 µM): 0.706
relative viability (NCI-H1734; first compound 0.4 µM): 0.614
relative viability (NCI-H1734; first compound 1.265 µM): 0.585
relative viability (NCI-H1437; first compound 0.04 µM): 0.476
relative viability (NCI-H1437; first compound 0.1265 µM): 0.609
relative viability (NCI-H1437; first compound 0.4 µM): 0.541
relative viability (NCI-H1437; first compound 1.265 µM): 0.202
relative viability (NCI-H1650; first compound 0.04 µM): 0.54
relative viability (NCI-H1650; first compound 0.1265 µM): 0.684
relative viability (NCI-H1650; first compound 0.4 µM): 0.758
relative viability (NCI-H1650; first compound 1.265 µM): 0.49
relative viability (NCI-H2405; first compound 0.04 µM): 0.64
relative viability (NCI-H2405; first compound 0.1265 µM): 0.651
relative viability (NCI-H2405; first compound 0.4 µM): 0.627
relative viability (NCI-H2405; first compound 1.265 µM): 0.587
relative viability (NCI-H1355; first compound 0.04 µM): 0.42
relative viability (NCI-H1355; first compound 0.1265 µM): 0.412
relative viability (NCI-H1355; first compound 0.4 µM): 0.459
relative viability (NCI-H1355; first compound 1.265 µM): 0.391
relative viability (CAL-12T; first compound 0.04 µM): 0.327
relative viability (CAL-12T; first compound 0.1265 µM): 0.372
relative viability (CAL-12T; first compound 0.4 µM): 0.369
relative viability (CAL-12T; first compound 1.265 µM): 0.333

O=C(O)c1ccc(-c2c[nH]c3ncc(-c4ccccc4)cc23)cc1C1CCCC1 + CC1(C)CCC(c2ccc(Cl)cc2)=C(CN2CCN(c3ccc(C(=O)NS(=O)(=O)c4ccc(N[C@H](CCN5CCOCC5)CSc5ccccc5)c(S(=O)(=O)C(F)(F)F)c4)cc3)CC2)C1 [Navitoclax] (partner 0.5 µM)
relative viability (PC-14; first compound 0.04 µM): 1.01
relative viability (PC-14; first compound 0.1265 µM): 1.1
relative viability (PC-14; first compound 0.4 µM): 1.03
relative viability (PC-14; first compound 1.265 µM): 0.814
relative viability (SW 1573; first compound 0.04 µM): 1.02
relative viability (SW 1573; first compound 0.1265 µM): 1.22
relative viability (SW 1573; first compound 0.4 µM): 1.05
relative viability (SW 1573; first compound 1.265 µM): 0.619
relative viability (RERF-LC-KJ; first compound 0.04 µM): 1.05
relative viability (RERF-LC-KJ; first compound 0.1265 µM): 1.24
relative viability (RERF-LC-KJ; first compound 0.4 µM): 0.842
relative viability (RERF-LC-KJ; first compound 1.265 µM): 0.772
relative viability (LK-2; first compound 0.04 µM): 0.9
relative viability (LK-2; first compound 0.1265 µM): 0.876
relative viability (LK-2; first compound 0.4 µM): 0.795
relative viability (LK-2; first compound 1.265 µM): 0.687
relative viability (H3255; first compound 0.04 µM): 0.572
relative viability (H3255; first compound 0.1265 µM): 0.642
relative viability (H3255; first compound 0.4 µM): 0.684
relative viability (H3255; first compound 1.265 µM): 0.463
relative viability (NCI-H2228; first compound 0.04 µM): 0.927
relative viability (NCI-H2228; first compound 0.1265 µM): 0.778
relative viability (NCI-H2228; first compound 0.4 µM): 0.98
relative viability (NCI-H2228; first compound 1.265 µM): 0.793
relative viability (EKVX; first compound 0.04 µM): 0.92
relative viability (EKVX; first compound 0.1265 µM): 0.967
relative viability (EKVX; first compound 0.4 µM): 1.03
relative viability (EKVX; first compound 1.265 µM): 0.655
relative viability (NCI-H322M; first compound 0.04 µM): 1.19
relative viability (NCI-H322M; first compound 0.1265 µM): 1.37
relative viability (NCI-H322M; first compound 0.4 µM): 1.34
relative viability (NCI-H322M; first compound 1.265 µM): 1.03
relative viability (NCI-H520; first compound 0.04 µM): 1.1
relative viability (NCI-H520; first compound 0.1265 µM): 1.08
relative viability (NCI-H520; first compound 0.4 µM): 1.18
relative viability (NCI-H520; first compound 1.265 µM): 0.836
relative viability (HCC-827; first compound 0.04 µM): 0.95
relative viability (HCC-827; first compound 0.1265 µM): 1.04
relative viability (HCC-827; first compound 0.4 µM): 0.979
relative viability (HCC-827; first compound 1.265 µM): 0.798
relative viability (HCC-15; first compound 0.04 µM): 0.697
relative viability (HCC-15; first compound 0.1265 µM): 0.746
relative viability (HCC-15; first compound 0.4 µM): 0.662
relative viability (HCC-15; first compound 1.265 µM): 0.373
relative viability (PC-3 [JPC-3]; first compound 0.04 µM): 0.817
relative viability (PC-3 [JPC-3]; first compound 0.1265 µM): 0.886
relative viability (PC-3 [JPC-3]; first compound 0.4 µM): 0.7
relative viability (PC-3 [JPC-3]; first compound 1.265 µM): 0.564
relative viability (COR-L23; first compound 0.04 µM): 1.01
relative viability (COR-L23; first compound 0.1265 µM): 1.04
relative viability (COR-L23; first compound 0.4 µM): 1.09
relative viability (COR-L23; first compound 1.265 µM): 0.64
relative viability (NCI-H1734; first compound 0.04 µM): 0.706
relative viability (NCI-H1734; first compound 0.1265 µM): 0.916
relative viability (NCI-H1734; first compound 0.4 µM): 0.878
relative viability (NCI-H1734; first compound 1.265 µM): 0.686
relative viability (NCI-H1437; first compound 0.04 µM): 1.03
relative viability (NCI-H1437; first compound 0.1265 µM): 1.22
relative viability (NCI-H1437; first compound 0.4 µM): 0.955
relative viability (NCI-H1437; first compound 1.265 µM): 0.407
relative viability (NCI-H1650; first compound 0.04 µM): 1.17
relative viability (NCI-H1650; first compound 0.1265 µM): 1.14
relative viability (NCI-H1650; first compound 0.4 µM): 0.774
relative viability (NCI-H1650; first compound 1.265 µM): 0.914
relative viability (NCI-H2405; first compound 0.04 µM): 0.944
relative viability (NCI-H2405; first compound 0.1265 µM): 0.811
relative viability (NCI-H2405; first compound 0.4 µM): 0.864
relative viability (NCI-H2405; first compound 1.265 µM): 0.348
relative viability (NCI-H1355; first compound 0.04 µM): 0.995
relative viability (NCI-H1355; first compound 0.1265 µM): 0.957
relative viability (NCI-H1355; first compound 0.4 µM): 1.03
relative viability (NCI-H1355; first compound 1.265 µM): 0.683
relative viability (CAL-12T; first compound 0.04 µM): 1.26
relative viability (CAL-12T; first compound 0.1265 µM): 1.21
relative viability (CAL-12T; first compound 0.4 µM): 1.11
relative viability (CAL-12T; first compound 1.265 µM): 1.05
